Assay results taken from patent US20190174768A1 (priority 2016, published 2019).

Key:
[1] = system: Venturia inaequalis Strain EUB04; assay: In planta test on apple plantlets against apple scab; assay type: in vivo; conditions: reference fungicide mode, D9 to D21
Procedure: The in planta tests on apple plantlets were carried out according to the following protocol:
2 modes tested: spraying of extract D at 5 g/L 2 hours before inoculation (ExtractBefore) and spraying of extract D at 5 g/L 3 hours after inoculation (ExtractAfter)
3 control modes: • 2 untreated control modes (spraying of water on the same dates as the product) (WaterBefore and WaterAfter) • 1 mode with a reference fungicide (captan)
Artificial inoculation of plants with a Venturia inaequalis strain at 100 000 spores/ml.
Scab symptoms noted at 4 dates post-inoculation (visual estimate of % scab area)
Biological material: • Plantlets derived from roughly 3-week-old apple seedlings in soil balls—from pips taken from the Gala variety (apples harvested in an orchard planted with Gala and Elstar) • Venturia inaequalis spores on cellophane—Strain EUB04
3 boxes of 12 plantlets for each mode
D+9, D+14, D+17, D+21: Notation of percentage of leaf area affected (from 0 to 100% in 10% increments)
Since the normality and homogeneity conditions of the variances of the residues were not met, a non-parametric Kruskal-Wallis test was performed. This test being significant, the medians of the different modes were compared pairwise using the Nemenyi test based on Tukey's distance. These analyses were carried out with the R software (version 3.1.2).

F. graminearum = assay type: cell-based, Fusarium graminearum

Row | SMILES | scab development [1] | antifungal activity against F. graminearum (F. graminearum)
1 | O=C1C2CC=CCC2C(=O)N1SC(Cl)(Cl)Cl (centres unmarked) [captan] | no scab development was observed | –
2 | C=C/C=C/CC/C=C/C=C/C=C/CC/C=C/[C@H](O)[C@H](O)[C@@H]1O[C@@H]([C@H](O)[C@H](O)C(=C)CC[C@@H](O)[C@H]2C[C@@H](O)[C@@H](O)[C@H]([C@@H](O)[C@H](O)/C=C(\C)CCC(O)CC(O)C(O)C(C)CC(O)C(O)CC(C)CCC(O)CC(=O)CC(O)CCCC(O)CCCCC(O)CO)O2)C[C@@H](O)[C@H]1O (some centres unmarked) [amphidinol 18] | – | has antifungal activity against F. graminearum
